Source: ChEMBL document CHEMBL4406802, “Human disorders associated with inflammation and the evolving role of natural products to overcome” (Eur J Med Chem, 2019)
One block for each molecule: values may come before it.

Legend:
RAW264.7 [1] = test: Antiinflammatory activity in mouse RAW264.7 cells assessed as inhibition of LPS-induced nitric oxide production after 24 hrs; format: functional, cell-based; settings: RAW264.7, 24 h
[2] = target: Prostaglandin G/H synthase 2 (Homo sapiens) (UniProt P35354); test: Inhibition of COX2 (unknown origin) at 0.01 mM using arachidonic acid as substrate preincubated for 15 mins followed by arachidonic acid addition measured after […] by ELISA relative to control
RAW264.7 [3] = test: Antiinflammatory activity in mouse RAW264.7 cells assessed as inhibition of LPS-induced nitric oxide production; format: functional, cell-based
BV-2 = test: Antiinflammatory activity in mouse BV2 cells assessed as inhibition of LPS-induced nitric oxide production; format: functional, cell-based
RAW264.7 [4] = test: Antiinflammatory activity against mouse RAW264.7 cells assessed as inhibition of LPS induced iNOS at 30 uM preincubated for 1 hr followed by LPS stimulation measured after 18 hrs relative to control; format: functional
RAW264.7 [5] = test: Antiinflammatory activity against mouse RAW264.7 cells assessed as inhibition of LPS induced COX2 at 30 uM preincubated for 1 hr followed by LPS stimulation measured after 18 hrs relative to control; format: functional
[6] = target: T1, Polyunsaturated fatty acid 5-lipoxygenase (Homo sapiens) (UniProt P09917); test: Inhibition of 5-lox (unknown origin) at 20 uM relative to control
T1 sequence (whole entry): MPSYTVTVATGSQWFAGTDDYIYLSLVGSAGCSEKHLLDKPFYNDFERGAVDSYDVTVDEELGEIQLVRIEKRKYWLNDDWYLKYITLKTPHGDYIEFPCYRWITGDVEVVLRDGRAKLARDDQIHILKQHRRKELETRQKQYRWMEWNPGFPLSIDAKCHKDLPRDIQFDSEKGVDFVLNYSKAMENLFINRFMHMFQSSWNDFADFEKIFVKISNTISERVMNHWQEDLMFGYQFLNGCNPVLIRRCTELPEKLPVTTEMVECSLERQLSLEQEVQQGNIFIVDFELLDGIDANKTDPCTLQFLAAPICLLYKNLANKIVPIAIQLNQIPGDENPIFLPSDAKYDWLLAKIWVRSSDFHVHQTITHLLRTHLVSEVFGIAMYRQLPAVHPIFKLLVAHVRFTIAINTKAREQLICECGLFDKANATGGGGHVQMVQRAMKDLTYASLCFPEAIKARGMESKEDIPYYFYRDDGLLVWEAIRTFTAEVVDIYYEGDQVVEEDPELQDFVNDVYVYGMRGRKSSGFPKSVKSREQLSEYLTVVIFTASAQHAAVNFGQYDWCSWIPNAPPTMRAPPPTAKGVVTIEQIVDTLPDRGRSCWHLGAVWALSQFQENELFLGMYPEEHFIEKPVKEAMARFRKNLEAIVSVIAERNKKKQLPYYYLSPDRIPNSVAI

RAW264.7 [7] = test: Antiinflammatory activity in mouse RAW264.7 cells assessed as inhibition of LPS-induced nitric oxide production at 50 uM preincubated for 2 hrs followed by LPS stimulation measured after 24 hrs by Griess reagent based assay relative to control; format: functional
RAW264.7 [8] = test: Antiinflammatory activity in mouse RAW264.7 cells assessed as inhibition of LPS-induced nitric oxide production at 20 uM preincubated for 2 hrs followed by LPS stimulation measured after 24 hrs by Griess reagent based assay relative to control; format: functional
RAW264.7 [9] = test: Antiinflammatory activity in mouse RAW264.7 cells assessed as inhibition of LPS-induced nitric oxide production at 10 uM preincubated for 2 hrs followed by LPS stimulation measured after 24 hrs by Griess reagent based assay relative to control; format: functional
[10] = target: T2, Prostaglandin G/H synthase 2 (Ovis aries, UniProt P79208); test: Inhibition of ovine COX2 by EIA
T2 sequence (P79208 whole entry): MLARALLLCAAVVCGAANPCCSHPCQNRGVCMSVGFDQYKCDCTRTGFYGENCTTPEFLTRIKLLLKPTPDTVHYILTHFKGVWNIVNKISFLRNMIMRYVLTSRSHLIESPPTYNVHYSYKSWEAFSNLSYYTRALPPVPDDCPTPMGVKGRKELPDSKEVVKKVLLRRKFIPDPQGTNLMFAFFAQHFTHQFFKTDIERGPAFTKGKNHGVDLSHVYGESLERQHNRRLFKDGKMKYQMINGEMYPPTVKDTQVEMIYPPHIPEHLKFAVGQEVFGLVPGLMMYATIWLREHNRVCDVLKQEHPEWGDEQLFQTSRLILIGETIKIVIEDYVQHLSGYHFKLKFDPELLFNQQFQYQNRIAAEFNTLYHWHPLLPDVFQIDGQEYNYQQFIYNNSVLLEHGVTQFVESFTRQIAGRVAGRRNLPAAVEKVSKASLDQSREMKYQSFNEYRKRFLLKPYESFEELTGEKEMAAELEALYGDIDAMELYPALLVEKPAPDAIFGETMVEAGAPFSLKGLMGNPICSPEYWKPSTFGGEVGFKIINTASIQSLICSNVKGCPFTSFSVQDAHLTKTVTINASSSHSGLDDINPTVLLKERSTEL

[11] = Inhibition of ovine 5-lox by EIA; parameters: species or system Ovis aries
[12] = target: T2, Prostaglandin G/H synthase 2; test: Inhibition of ovine COX2
[13] = target: T3, Prostaglandin G/H synthase 1 (Ovis aries, UniProt P05979); test: Inhibition of ovine COX1
T3 sequence (P05979 whole entry): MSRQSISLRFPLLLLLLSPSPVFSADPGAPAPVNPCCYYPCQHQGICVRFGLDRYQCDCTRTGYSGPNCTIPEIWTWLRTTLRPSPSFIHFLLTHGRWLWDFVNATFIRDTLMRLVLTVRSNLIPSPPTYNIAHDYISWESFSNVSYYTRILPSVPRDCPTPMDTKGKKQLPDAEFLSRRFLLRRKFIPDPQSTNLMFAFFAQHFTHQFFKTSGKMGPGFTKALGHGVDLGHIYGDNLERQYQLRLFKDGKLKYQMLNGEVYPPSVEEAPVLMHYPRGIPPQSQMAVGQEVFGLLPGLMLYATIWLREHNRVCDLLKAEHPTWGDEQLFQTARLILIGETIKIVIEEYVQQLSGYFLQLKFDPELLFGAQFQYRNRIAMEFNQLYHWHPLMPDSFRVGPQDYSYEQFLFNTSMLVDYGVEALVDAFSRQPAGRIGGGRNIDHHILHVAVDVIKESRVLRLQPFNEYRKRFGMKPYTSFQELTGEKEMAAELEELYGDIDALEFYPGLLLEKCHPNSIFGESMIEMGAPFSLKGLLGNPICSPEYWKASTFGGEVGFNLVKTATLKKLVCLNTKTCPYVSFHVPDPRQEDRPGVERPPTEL

THP-1 = test: Antiinflammatory activity against human THP1 cells assessed as inhibition of LPS induced TNF-alpha at 40 uM preincubated for 30 mins followed by LPS stimulation measured after 24 hrs by ELISA relative to control; format: functional
[14] = target: T4, Prostaglandin G/H synthase 2 (Homo sapiens) (UniProt P35354); test: Inhibition of COX2 (unknown origin) at […] using arachidonic acid as substrate preincubated for 15 mins followed by arachidonic acid addition measured after 2 mins by ELISA relative to control
T4 sequence (whole entry): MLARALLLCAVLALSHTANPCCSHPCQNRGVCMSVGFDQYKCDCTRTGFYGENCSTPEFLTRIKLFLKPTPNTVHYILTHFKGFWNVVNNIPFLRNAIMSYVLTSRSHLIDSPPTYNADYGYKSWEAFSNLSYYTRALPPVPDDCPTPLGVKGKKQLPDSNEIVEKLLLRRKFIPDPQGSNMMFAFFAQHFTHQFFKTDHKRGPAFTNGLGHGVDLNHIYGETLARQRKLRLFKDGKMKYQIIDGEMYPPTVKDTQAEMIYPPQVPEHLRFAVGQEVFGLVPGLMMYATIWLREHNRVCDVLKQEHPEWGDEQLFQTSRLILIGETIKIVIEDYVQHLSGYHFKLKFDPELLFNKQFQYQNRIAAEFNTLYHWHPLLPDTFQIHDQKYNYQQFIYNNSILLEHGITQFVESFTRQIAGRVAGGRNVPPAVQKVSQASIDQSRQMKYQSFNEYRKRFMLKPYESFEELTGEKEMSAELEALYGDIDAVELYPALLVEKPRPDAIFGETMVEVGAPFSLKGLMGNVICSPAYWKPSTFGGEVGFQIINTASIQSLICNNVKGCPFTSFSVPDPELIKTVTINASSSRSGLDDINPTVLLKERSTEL

[15] = target: Nitric oxide synthase, inducible (Homo sapiens, UniProt P35228); test: Inhibition of iNOS (unknown origin)
Sequence of Nitric oxide synthase, inducible (P35228 whole entry): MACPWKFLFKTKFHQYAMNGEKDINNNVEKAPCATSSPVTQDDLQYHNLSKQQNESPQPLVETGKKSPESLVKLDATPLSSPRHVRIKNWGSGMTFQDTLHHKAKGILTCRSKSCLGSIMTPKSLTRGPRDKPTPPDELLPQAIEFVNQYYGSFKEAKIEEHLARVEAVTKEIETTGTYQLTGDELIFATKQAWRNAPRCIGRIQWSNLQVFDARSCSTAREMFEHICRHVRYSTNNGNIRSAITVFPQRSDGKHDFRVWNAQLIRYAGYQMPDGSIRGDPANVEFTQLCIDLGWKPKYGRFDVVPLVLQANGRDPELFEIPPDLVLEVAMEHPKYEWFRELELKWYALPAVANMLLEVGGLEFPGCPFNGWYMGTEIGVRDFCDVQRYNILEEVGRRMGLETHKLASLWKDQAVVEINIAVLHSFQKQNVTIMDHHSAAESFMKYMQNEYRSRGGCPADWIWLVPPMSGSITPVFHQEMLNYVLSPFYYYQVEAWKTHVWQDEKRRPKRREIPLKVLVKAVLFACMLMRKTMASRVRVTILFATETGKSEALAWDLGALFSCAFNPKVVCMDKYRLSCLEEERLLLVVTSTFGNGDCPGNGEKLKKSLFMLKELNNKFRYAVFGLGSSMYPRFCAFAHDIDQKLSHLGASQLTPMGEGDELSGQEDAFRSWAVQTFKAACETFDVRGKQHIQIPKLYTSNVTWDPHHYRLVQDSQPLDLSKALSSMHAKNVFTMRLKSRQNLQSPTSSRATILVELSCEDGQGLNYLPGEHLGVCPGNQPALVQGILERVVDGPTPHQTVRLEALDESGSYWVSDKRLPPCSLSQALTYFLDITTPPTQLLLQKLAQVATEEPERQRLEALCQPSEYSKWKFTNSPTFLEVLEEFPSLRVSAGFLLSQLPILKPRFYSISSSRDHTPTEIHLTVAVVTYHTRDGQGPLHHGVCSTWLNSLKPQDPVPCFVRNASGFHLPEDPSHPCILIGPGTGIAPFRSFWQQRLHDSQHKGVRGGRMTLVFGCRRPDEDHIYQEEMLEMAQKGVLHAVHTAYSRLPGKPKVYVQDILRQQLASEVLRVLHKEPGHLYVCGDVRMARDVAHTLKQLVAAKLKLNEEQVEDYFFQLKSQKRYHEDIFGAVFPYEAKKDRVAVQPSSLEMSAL

Interleukin-1 beta = Interleukin-1 beta (Homo sapiens, UniProt P01584); test: Inhibition of IL1-beta (unknown origin)
Sequence of Interleukin-1 beta (P01584 117-269 limits assumed): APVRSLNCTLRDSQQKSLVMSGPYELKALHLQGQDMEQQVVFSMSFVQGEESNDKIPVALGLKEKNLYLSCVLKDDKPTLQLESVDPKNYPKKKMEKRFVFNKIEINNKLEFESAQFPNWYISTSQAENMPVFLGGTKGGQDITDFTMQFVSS

- IC50 (RAW264.7 [1]): 3.32 µM
SMILES: C=CC(C)(CCC=C(C)C)c1c(O)cc2c(c1O)C(=O)C[C@@H](c1ccc(O)c(O)c1)O2 (stereo partly drawn)

- inhibition [2]: 83.3%
SMILES: CC1(C)NC(CCc2ccc(O)cc2)CC(=O)C1Cc1ccc(O)cc1 (stereo not drawn)

- inhibition [6]: 28.5%
SMILES: COc1cc(C2OCC3C(c4cc(OC)c(O)c(OC)c4)OCC23)cc(OC)c1O (stereo not drawn)

- IC50 [12]: 830 µM
- IC50 [13]: 300 µM
SMILES: CC(C)=CCCC(C(=O)O)C1CNC(=N)N1 (stereo not drawn)

The next lines start with the molecule.

SMILES: C=C1[C@@H]([C@@]2(C)[C@@H](O)CC(=O)C(C)(C)[C@@H]2[C@@H](O)C(=O)OC)CC[C@@]2(C)[C@H](C3=C[C@@H](O)CC3=O)CC(=O)C[C@]12O
- IC50 (RAW264.7 [3]): 5.04 µM
- IC50 (BV-2): 4.97 µM

SMILES: C=C1CC[C@]2(C(=O)O[C@@H]3O[C@H](CO)[C@@H](O)[C@H](O)[C@H]3O)CC[C@]3(C)C(=CC[C@@H]4[C@@]5(C)CC[C@H](O[C@@H]6OC[C@@H](O)[C@H](O)[C@H]6O[C@@H]6O[C@H](CO)[C@@H](O)[C@H](O)[C@H]6O)C(C)(C)[C@@H]5CC[C@]43C)[C@@H]2[C@H]1C
- inhibition at 30 µM (RAW264.7 [4]): 75.9%
- inhibition at 30 µM (RAW264.7 [5]): 40.9%

SMILES: COc1cc(/C=C/c2ccccc2)c(C(=O)O)c(O)c1CC=C(C)C
- inhibition at 50 µM (RAW264.7 [7]): 40.9%
- inhibition at 20 µM (RAW264.7 [8]): 30.6%
- inhibition at 10 µM (RAW264.7 [9]): 21.2%

SMILES: CC(C)=CCC/C(C)=C/Cc1c(O)cc(O)c(C(=O)C(C)C)c1O
- IC50 [10]: 29.9 µM
- IC50 [11]: 2.2 µM

SMILES: O=C(OC1Cc2c(O)cc(O)cc2OC1c1cc(O)c(O)c(O)c1)c1cc(O)c(O)c(O)c1 (stereo not drawn)
- inhibition at 40 µM (THP-1): 39.1%

SMILES: O=C(/C=C/CCc1ccc(O)cc1)CCc1ccc(O)cc1
- inhibition [14]: 98.4%

SMILES: C/C=C(\C)C(=O)O[C@H]1[C@H](OC(C)=O)[C@@]23C[C@@]1(O)O[C@H]1C[C@]4(C)C(=CC[C@H]4c4ccoc4)[C@](C)(C(=O)C[C@H]2C(C)C)C13 (stereo partly drawn)
- IC50 [15]: 7.8 µM
- IC50 (Interleukin-1 beta): 7.8 µM
